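48-hour exposure; five concentrations; linearly interpolated endpoints. TGI denotes the concentration required for complete inhibition of growth.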
Legend:
Assay in all cases: DTP human tumour cell line panel, 48 h
RXF 393 renal = test system: RXF 393 renal
HS 578T breast = test system: HS 578T breast
CCRF-CEM leukemia = test system: CCRF-CEM leukemia
MDA-N = test system: MDA-N
HCT-15 colon = test system: HCT-15 colon
SK-OV-3 ovarian = test system: SK-OV-3 ovarian
NCI-H226 lung = test system: NCI-H226 lung
SR leukemia = test system: SR leukemia
SF-295 CNS = test system: SF-295 CNS
SK-MEL-5 melanoma = test system: SK-MEL-5 melanoma
KM12 colon = test system: KM12 colon
EKVX NSCLC = test system: EKVX NSCLC
OVCAR-8 ovarian = test system: OVCAR-8 ovarian
M14 melanoma = test system: M14 melanoma
MALME-3M melanoma = test system: MALME-3M melanoma
OVCAR-5 ovarian = test system: OVCAR-5 ovarian
786-0 renal = test system: 786-0 renal
LOX IMVI melanoma = test system: LOX IMVI melanoma
SK-MEL-28 melanoma = test system: SK-MEL-28 melanoma
NCI-H23 lung = test system: NCI-H23 lung
SNB-19 CNS = test system: SNB-19 CNS
HCC-2998 colon = test system: HCC-2998 colon
OVCAR-4 ovarian = test system: OVCAR-4 ovarian
UACC-257 melanoma = test system: UACC-257 melanoma
SK-MEL-2 melanoma = test system: SK-MEL-2 melanoma
MOLT-4 leukemia = test system: MOLT-4 leukemia
UACC-62 melanoma = test system: UACC-62 melanoma
COLO 205 colon = test system: COLO 205 colon
ACHN renal = test system: ACHN renal
NCI/ADR-RES ovarian = test system: NCI/ADR-RES ovarian
MDA-MB-231 breast = test system: MDA-MB-231 breast
MDA-MB-435 = test system: MDA-MB-435
PC-3 prostate = test system: PC-3 prostate
DU-145 prostate = test system: DU-145 prostate
NCI-H460 lung = test system: NCI-H460 lung
U251 CNS = test system: U251 CNS
SW-620 colon = test system: SW-620 colon
HOP-62 NSCLC = test system: HOP-62 NSCLC
HT29 colon = test system: HT29 colon
SNB-75 CNS = test system: SNB-75 CNS
A498 renal = test system: A498 renal
T-47D breast = test system: T-47D breast
NCI-H522 lung = test system: NCI-H522 lung
HCT-116 colon = test system: HCT-116 colon
BT-549 breast = test system: BT-549 breast
K-562 leukemia = test system: K-562 leukemia
SF-268 CNS = test system: SF-268 CNS
SN12C renal = test system: SN12C renal
TK-10 renal = test system: TK-10 renal
A549 NSCLC = test system: A549 NSCLC
MCF7 breast = test system: MCF7 breast
UO-31 renal = test system: UO-31 renal
SF-539 CNS = test system: SF-539 CNS
HL-60(TB) leukemia = test system: HL-60(TB) leukemia
IGROV1 ovarian = test system: IGROV1 ovarian
RPMI-8226 leukemia = test system: RPMI-8226 leukemia
HOP-92 NSCLC = test system: HOP-92 NSCLC
OVCAR-3 ovarian = test system: OVCAR-3 ovarian
CAKI-1 renal = test system: CAKI-1 renal

Measured: TGI

CCNC(=S)N/N=C/c1cc([N+](=O)[O-])ccc1O
40.8 µM: HCT-116 colon | HL-60(TB) leukemia
63.7 µM: MOLT-4 leukemia
72.8 µM: OVCAR-4 ovarian
77.3 µM: NCI/ADR-RES ovarian
69.1 µM: A498 renal
59.3 µM: SR leukemia | NCI-H522 lung
4.4 µM: MCF7 breast
93.9 µM: UACC-62 melanoma
38.6 µM: CCRF-CEM leukemia
79.8 µM: TK-10 renal
not listed: RPMI-8226 leukemia | HOP-92 NSCLC | OVCAR-3 ovarian | CAKI-1 renal
> 100 µM: all other assays above

COc1ccc(/C=C2\CCC(C)C3=C2NC(=S)NC3c2ccc(OC)c(OC)c2)cc1OC (stereo not given)
28.8 µM: SK-MEL-5 melanoma
39.3 µM: SR leukemia
12.1 µM: MDA-N
> 90.2 µM: OVCAR-8 ovarian
24.7 µM: COLO 205 colon
> 100 µM: NCI-H226 lung | HOP-92 NSCLC | HCC-2998 colon | OVCAR-4 ovarian | NCI/ADR-RES ovarian | NCI-H460 lung | HOP-62 NSCLC | HT29 colon | SNB-75 CNS | NCI-H522 lung | A549 NSCLC
25.3 µM: MOLT-4 leukemia
> 27.4 µM: T-47D breast
26.2 µM: BT-549 breast
not listed: RXF 393 renal | CCRF-CEM leukemia | MALME-3M melanoma | NCI-H23 lung
> 31.6 µM: all other assays above

— PubChem BioAssay (NCI)
